For 14 compounds, IC50 results are on record in patent publication US10457677B2 (priority 2015, dated 2019).

Assay [1] concerns the target purified human recombinant ATM (ataxia telangiectasia mutated), full length (Homo sapiens (Human), UniProt Q13315). The experiment in a line: ATM kinase assay - determination of ATM inhibition (IC50 ATM), TR-FRET. Format: biochemical. The procedure, abridged:
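Full-length enzyme, expressed in a mammalian cell line, pre-incubated 15 min with inhibitor in 25 mM HEPES pH 8.0, 10 mM Mg(CH3COO)2, 1 mM MnCl2, 0,1% BSA, 0,01% Brij 35, 5 mM DTT. Full-length cmyc-p53 (Sf21-expressed) and ATP then added, 30-35 min at 22° C. EDTA stop; p53 S15 phosphorylation read by TR-FRET antibodies.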

The test system of assay [2] is phosphorylation of CHK2 (phospho-Thr68) in HCT116 cells. The experiment in a line: Cellular pCHK2 assay: bleomycin-induced phosphorylation of CHK2 (phospho-Thr68), immunofluorescence high-content analysis. Format: cell-based, human. The conditions noted are these: Homo sapiens, HCT-116, 4 h, read-out: IC50 (pCHK2). The procedure, abridged: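 HCT116 cells in DMEM with 10% FCS, incubated overnight at 37° C, then given compounds (1 nM to 30 μM, 0.5% DMSO) together with 10 μM bleomycin. Phospho-Thr68 CHK2 immunostained and imaged by high-content imager; nuclei with pCHK2 above background counted, cell count from propidium iodide DNA stain.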

The target of a further assay is mTOR (human) (Homo sapiens (Human), UniProt P42345). The assay is described as follows: mTOR (human) kinase assay, [γ-33P-ATP] filter assay. Format: biochemical. The procedure, abridged: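 Radiometric filter assay: enzyme in 50 mM HEPES pH 7.5, 1 mM EGTA, 0.01% Tween 20, 3 mM MnCl2, 2 mg/ml substrate with [γ-33P-ATP], started with MgATP. Incubated 40 min at room temperature, stopped with 3% phosphoric acid; incorporation measured on P30 filtermat by scintillation counting.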

Another assay has as its target PI3K p110α/p85α (human) (Homo sapiens (Human), UniProt P42336). The assay is described as follows: PI3K p110α/p85α (human), non-radioactive assay (HTRF). Format: biochemical. The conditions noted are these: read-out: IC50 (PI3Kalpha).
A further assay concerns the target PI3K p110β/p85α (human) (Homo sapiens (Human), UniProt P42338). The assay is described as follows: PI3K p110β/p85α (human), non-radioactive assay (HTRF). Format: biochemical. The conditions noted are these: read-out: IC50 (PI3Kbeta). The procedure, abridged:
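Human p110β/p85α incubated with 10 μM phosphatidylinositol 4,5-bisphosphate and MgATP for 30 min at room temperature, stopped with EDTA plus biotinylated PIP3. HTRF detection used a Eu-anti-GST antibody, GST-GRP1 PH domain and streptavidin-APC, with signal taken as 10000×(Em665nm/Em620nm).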

For the next assay, the target named is PI3K p110δ/p85α (human) (Homo sapiens (Human), UniProt O00329). The experiment in a line: PI3K p110δ/p85α (human), non-radioactive assay (HTRF). The class given is biochemical. Particulars: read-out: IC50 (PI3Kdelta).
The target of another assay is PI3K (p120γ) (human) (Homo sapiens (Human), UniProt P48736). The assay is described as follows: PI3K (p120γ) (human), non-radioactive assay (HTRF). Particulars: read-out: IC50 (PI3Kgamma). Format: biochemical. In a few lines:
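Enzyme was run with 10 μM phosphatidylinositol 4,5-bisphosphate, starting the reaction with MgATP at an unspecified level, for 30 min at room temperature. The stop used EDTA plus biotinylated PIP3, and detection used Eu-anti-GST, GST-GRP1 PH domain and streptavidin-APC. Signal was taken as HTRF = 10000×(Em665nm/Em620nm).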

Read-outs that look alike come from different tables or passages of the source. Bounds are passed on as bounds.

Sequence of purified human recombinant ATM (ataxia telangiectasia mutated), full length (Q13315 whole entry, change not shown): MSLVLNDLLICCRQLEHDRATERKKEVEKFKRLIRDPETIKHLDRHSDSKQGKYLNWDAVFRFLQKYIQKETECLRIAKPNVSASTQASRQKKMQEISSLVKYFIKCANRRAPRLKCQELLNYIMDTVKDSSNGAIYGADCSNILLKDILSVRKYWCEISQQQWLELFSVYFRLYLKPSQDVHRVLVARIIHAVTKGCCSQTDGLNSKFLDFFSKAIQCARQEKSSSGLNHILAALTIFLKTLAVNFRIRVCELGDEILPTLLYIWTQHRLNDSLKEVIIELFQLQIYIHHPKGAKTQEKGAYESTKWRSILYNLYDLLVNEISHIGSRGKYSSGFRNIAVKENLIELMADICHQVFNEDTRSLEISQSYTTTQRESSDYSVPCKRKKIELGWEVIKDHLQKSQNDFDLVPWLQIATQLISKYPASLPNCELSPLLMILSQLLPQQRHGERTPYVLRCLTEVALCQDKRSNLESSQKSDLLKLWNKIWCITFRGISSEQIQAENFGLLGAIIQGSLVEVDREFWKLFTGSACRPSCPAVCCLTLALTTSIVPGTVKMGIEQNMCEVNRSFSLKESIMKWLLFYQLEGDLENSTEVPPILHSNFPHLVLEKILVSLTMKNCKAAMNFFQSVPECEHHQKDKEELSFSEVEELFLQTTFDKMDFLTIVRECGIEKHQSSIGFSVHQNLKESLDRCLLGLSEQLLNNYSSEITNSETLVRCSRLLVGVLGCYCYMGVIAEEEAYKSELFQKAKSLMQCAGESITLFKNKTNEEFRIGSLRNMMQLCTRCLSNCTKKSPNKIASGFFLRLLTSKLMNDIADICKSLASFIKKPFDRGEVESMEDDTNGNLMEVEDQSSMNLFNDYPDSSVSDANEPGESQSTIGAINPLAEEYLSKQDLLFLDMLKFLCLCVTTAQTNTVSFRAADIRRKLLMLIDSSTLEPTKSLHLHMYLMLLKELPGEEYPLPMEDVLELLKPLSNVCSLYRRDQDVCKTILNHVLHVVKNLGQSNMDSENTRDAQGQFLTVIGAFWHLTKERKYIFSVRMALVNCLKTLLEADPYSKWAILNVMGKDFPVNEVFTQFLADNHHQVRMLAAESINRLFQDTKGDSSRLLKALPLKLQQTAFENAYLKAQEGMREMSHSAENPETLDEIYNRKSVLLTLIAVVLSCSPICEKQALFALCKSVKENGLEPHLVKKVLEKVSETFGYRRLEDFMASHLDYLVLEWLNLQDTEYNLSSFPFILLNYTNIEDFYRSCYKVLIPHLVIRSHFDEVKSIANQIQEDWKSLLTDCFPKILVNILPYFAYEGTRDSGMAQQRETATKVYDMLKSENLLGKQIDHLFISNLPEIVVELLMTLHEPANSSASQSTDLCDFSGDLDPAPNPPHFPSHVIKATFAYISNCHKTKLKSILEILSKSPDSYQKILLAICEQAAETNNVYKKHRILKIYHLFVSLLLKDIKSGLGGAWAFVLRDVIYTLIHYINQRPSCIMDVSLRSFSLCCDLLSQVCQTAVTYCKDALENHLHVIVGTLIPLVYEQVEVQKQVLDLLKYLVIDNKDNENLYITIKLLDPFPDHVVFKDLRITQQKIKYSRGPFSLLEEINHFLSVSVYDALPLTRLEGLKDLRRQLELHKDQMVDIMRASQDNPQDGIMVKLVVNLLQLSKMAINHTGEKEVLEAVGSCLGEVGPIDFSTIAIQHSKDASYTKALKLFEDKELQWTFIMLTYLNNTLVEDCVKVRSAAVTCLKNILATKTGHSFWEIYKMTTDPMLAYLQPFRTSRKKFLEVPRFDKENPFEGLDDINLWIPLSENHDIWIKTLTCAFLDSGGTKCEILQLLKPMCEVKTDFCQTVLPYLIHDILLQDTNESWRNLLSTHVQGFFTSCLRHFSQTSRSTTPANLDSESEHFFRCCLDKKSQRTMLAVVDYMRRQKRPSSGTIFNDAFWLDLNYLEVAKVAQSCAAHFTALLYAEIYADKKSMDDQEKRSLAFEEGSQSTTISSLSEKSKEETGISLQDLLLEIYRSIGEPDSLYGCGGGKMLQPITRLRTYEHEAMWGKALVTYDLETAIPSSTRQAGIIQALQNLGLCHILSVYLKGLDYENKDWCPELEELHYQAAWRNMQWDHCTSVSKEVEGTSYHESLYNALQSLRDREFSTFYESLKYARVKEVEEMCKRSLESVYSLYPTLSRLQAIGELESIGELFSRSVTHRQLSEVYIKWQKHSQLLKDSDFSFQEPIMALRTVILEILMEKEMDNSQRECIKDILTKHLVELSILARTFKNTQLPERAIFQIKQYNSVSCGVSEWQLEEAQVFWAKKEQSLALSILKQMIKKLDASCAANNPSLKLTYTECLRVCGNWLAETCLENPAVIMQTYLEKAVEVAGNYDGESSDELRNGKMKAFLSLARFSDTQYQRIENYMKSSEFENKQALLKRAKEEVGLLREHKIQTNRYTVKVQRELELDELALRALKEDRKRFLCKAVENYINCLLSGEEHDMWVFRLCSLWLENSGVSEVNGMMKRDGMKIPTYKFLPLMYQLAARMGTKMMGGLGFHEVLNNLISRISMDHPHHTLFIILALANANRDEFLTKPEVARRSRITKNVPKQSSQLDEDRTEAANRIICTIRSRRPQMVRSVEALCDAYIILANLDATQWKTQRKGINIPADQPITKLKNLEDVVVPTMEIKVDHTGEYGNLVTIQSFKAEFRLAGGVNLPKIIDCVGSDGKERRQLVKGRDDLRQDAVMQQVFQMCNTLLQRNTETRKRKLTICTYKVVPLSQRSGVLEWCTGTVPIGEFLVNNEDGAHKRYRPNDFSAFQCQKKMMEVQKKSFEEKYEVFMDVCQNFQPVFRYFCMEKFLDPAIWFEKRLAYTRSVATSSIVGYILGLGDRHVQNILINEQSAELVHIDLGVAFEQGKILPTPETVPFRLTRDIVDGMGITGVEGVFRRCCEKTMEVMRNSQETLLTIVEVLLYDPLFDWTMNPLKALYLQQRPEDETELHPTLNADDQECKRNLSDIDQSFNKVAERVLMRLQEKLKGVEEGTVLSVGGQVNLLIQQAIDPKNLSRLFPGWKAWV
Sequence of PI3K p110α/p85α (human) (P42336 whole entry): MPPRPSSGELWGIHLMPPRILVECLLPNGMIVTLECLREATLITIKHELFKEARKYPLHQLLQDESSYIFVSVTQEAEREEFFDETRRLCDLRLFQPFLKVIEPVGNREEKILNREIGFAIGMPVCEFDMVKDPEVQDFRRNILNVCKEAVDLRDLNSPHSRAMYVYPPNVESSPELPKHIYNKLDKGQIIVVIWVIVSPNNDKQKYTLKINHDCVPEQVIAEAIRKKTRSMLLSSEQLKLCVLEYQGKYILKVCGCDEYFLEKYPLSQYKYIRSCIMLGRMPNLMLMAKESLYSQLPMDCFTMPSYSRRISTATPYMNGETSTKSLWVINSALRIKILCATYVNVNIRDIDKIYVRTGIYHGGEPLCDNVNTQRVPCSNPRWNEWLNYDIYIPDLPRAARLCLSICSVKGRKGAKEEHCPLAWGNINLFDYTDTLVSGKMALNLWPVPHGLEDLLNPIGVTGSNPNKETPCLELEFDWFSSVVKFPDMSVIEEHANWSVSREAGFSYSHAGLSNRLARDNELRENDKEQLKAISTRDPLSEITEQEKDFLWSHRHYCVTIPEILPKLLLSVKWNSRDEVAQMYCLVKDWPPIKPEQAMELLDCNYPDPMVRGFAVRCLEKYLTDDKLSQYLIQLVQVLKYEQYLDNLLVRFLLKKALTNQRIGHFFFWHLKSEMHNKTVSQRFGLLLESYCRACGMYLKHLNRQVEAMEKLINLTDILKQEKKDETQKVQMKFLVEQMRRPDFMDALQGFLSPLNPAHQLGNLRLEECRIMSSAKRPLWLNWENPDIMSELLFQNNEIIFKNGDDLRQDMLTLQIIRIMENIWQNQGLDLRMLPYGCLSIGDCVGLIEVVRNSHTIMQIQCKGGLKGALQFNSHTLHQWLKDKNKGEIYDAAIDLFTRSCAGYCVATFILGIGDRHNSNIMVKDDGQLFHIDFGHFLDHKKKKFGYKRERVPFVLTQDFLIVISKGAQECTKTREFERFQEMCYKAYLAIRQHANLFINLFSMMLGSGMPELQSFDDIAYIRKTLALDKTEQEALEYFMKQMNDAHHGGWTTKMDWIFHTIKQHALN
Sequence of PI3K p110α/p85α (human) (P27986 whole entry partner): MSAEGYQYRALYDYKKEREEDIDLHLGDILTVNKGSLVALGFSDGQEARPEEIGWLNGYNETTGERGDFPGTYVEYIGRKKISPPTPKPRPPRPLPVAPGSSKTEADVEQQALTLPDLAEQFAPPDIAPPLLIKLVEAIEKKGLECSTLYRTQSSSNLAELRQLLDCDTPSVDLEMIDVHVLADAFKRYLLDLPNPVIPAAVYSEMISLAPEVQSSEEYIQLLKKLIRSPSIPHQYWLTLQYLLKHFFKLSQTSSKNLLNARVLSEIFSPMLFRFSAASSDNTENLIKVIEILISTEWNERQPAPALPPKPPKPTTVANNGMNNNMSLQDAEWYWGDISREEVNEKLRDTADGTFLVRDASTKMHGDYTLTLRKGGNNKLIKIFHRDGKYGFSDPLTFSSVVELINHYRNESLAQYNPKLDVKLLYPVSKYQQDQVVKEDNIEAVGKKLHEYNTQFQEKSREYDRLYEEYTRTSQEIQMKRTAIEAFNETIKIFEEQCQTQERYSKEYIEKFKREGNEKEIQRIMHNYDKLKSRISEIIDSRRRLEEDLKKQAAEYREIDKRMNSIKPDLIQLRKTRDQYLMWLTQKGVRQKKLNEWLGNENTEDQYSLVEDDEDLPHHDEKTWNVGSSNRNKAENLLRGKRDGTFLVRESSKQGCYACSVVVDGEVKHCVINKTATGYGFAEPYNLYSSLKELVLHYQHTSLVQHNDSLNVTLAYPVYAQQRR

Regarding `COc1cc2ncc3c(c2cc1-c1cnn(C)c1)n(-c1cncnc1)c(=O)n3C` [Compound Example 57, 7-Methoxy-3-methyl-8-(1-methyl-1H-pyrazol-4-yl)-1-pyrimidin-5-yl-1,3-dihydro-imidazo[4,5-c]quinolin-2-one], the IC50 in assay [1] was below 0.05 µM; in assay [1] (10 μM ATP, substrate p53) it was below 0.05 µM; in assay [2], 0.2 to 1 µM; at mTOR (human), above 30 µM; at PI3K p110α/p85α (human), above 30 µM; on PI3K p110β/p85α (human), above 30 µM. In addition, the IC50 on PI3K p110δ/p85α (human) and at PI3K (p120γ) (human) was above 30 µM throughout.

Turning to `COc1cc2ncc3c(c2cc1-c1cn[nH]c1)n(-c1ccncc1F)c(=O)n3C` [Compound Example 9, 1-(3-Fluoropyridin-4-yl)-7-methoxy-3-methyl-8-(1H-pyrazol-4-yl)-1,3-dihydro-imidazo[4,5-c]quinolin-2-one], the IC50 in assay [1] is below 0.001 µM; in assay [1] (10 μM ATP, substrate p53), below 0.001 µM; in assay [2] it was below 0.2 µM; against mTOR (human), above 10 µM; on PI3K p110α/p85α (human) it was above 30 µM; at PI3K p110β/p85α (human), above 30 µM. The IC50 on PI3K p110δ/p85α (human) and at PI3K (p120γ) (human) was above 30 µM in each case.

For the compound `COc1cc2ncc3c(c2cc1-c1cnn(C)c1)n(-c1ccncc1F)c(=O)n3C` [Compound Example 35, 1-(3-Fluoropyridin-4-yl)-7-methoxy-3-methyl-8-(1-methyl-1H-pyrazol-4-yl)-1,3-dihydroimidazo[4,5-c] quinolin-2-one], the IC50 in assay [1] is below 0.01 µM; in assay [1] (10 μM ATP, substrate p53) it was below 0.01 µM; in assay [2], below 0.2 µM; at mTOR (human), above 30 µM; on PI3K p110α/p85α (human), above 30 µM; on PI3K p110β/p85α (human), above 30 µM. For the same compound, the IC50 on PI3K p110δ/p85α (human) and on PI3K (p120γ) (human) was above 30 µM in each case.

`CCn1cc(-c2cc3c(cc2OC)ncc2c3n(-c3ncccc3F)c(=O)n2C)cn1` [Compound Example 24, 8-(1-Ethyl-1H-pyrazol-4-yl)-1-(3-fluoropyridin-2-yl)-7-methoxy-3-methyl-1,3-dihydroimidazo[4,5-c] quinolin-2-one]: the IC50 in assay [1] was below 0.001 µM; in assay [1] (10 μM ATP, substrate p53), below 0.001 µM; in assay [2], below 0.2 µM; against mTOR (human), above 30 µM; at PI3K p110α/p85α (human) it was above 30 µM; on PI3K p110β/p85α (human), above 30 µM. The IC50 on PI3K p110δ/p85α (human) and at PI3K (p120γ) (human) was above 30 µM throughout.

With `COc1cc2ncc3c(c2cc1-c1cn[nH]c1)n(-c1c(C)cncc1F)c(=O)n3C` [Compound Example 8, 1-(3-Fluoro-5-methylpyridin-4-yl)-7-methoxy-3-methyl-8-(1H-pyrazol-4-yl)-1,3-dihydroimidazo[4,5-c] quinolin-2-one], the IC50 in assay [1] was below 0.001 µM; in assay [1] (10 μM ATP, substrate p53), below 0.001 µM; in assay [2] it was below 0.2 µM; against mTOR (human), above 5 µM; at PI3K p110α/p85α (human) it was above 30 µM; at PI3K p110β/p85α (human), above 30 µM. The IC50 at PI3K p110δ/p85α (human) and at PI3K (p120γ) (human) was above 30 µM in each case.

In the case of `COc1cc2ncc3c(c2cc1-c1cc(C)[nH]n1)n(-c1ncccc1F)c(=O)n3C` [Compound Example 29, 1-(3-Fluoropyridin-2-yl)-7-methoxy-3-methyl-8-(5-methyl-1H-pyrazol-3-yl)-1,3-dihydroimidazo[4,5-c] quinolin-2-one], the IC50 is below 0.01 µM in assay [1]; below 0.01 µM in assay [1] (10 μM ATP, substrate p53); below 0.2 µM in assay [2]; above 30 µM at mTOR (human); above 30 µM at PI3K p110α/p85α (human); above 30 µM at PI3K p110β/p85α (human). For the same compound, the IC50 at PI3K p110δ/p85α (human) and on PI3K (p120γ) (human) was above 30 µM in each case.

On to `COc1cc2ncc3c(c2cc1-c1cnn(C)c1)n(-c1cnn(C)c1)c(=O)n3C` [Compound Example 23, 7-Methoxy-3-methyl-1,8-bis-(1-methyl-1H-pyrazol-4-yl)-1,3-dihydroimidazo[4,5-c] quinolin-2-one], for which the IC50 in assay [1] is below 0.01 µM; in assay [1] (10 μM ATP, substrate p53) it was below 0.01 µM; in assay [2], below 0.2 µM; against mTOR (human) it was above 20 µM; at PI3K p110α/p85α (human), above 20 µM; on PI3K p110β/p85α (human) it was above 30 µM. Besides, the IC50 on PI3K p110δ/p85α (human) and on PI3K (p120γ) (human) was above 30 µM each time.

As to `COc1cc2ncc3c(c2cc1-c1cnn(C)c1)n(-c1ncccc1F)c(=O)n3C` [Compound Example 14, 1-(3-Fluoropyridin-2-yl)-7-methoxy-3-methyl-8-(1-methyl-1H-pyrazol-4-yl)-1,3-dihydroimidazo[4,5-c]-quinolin-2-one], the IC50 in assay [1] was below 0.001 µM; in assay [1] (10 μM ATP, substrate p53), below 0.001 µM; in assay [2], below 0.2 µM; on mTOR (human) it was above 30 µM; on PI3K p110α/p85α (human), above 30 µM; at PI3K p110β/p85α (human), above 30 µM. The IC50 at PI3K p110δ/p85α (human) and at PI3K (p120γ) (human) was above 30 µM in each case.

Regarding `COc1cc2ncc3c(c2cc1-c1cnn(C)c1)n(-c1ccncc1Cl)c(=O)n3C` [compound 60, 1-(3-Chloropyridin-4-yl)-7-methoxy-3-methyl-8-(1-methyl-1H-pyrazol-4-yl)-1,3-dihydroimidazo[4,5-c] quinolin-2-one], the IC50 in assay [1] was below 0.01 µM; in assay [1] (10 μM ATP, substrate p53), below 0.01 µM; in assay [2], 1 to 2 µM; on mTOR (human), above 30 µM; at PI3K p110α/p85α (human), above 30 µM; on PI3K p110β/p85α (human), above 30 µM. Also, the IC50 at PI3K p110δ/p85α (human) and at PI3K (p120γ) (human) was above 30 µM in each case.

Consider `COc1cc2ncc3c(c2cc1-c1cnn(C)c1)n(-c1nccs1)c(=O)n3C` [Compound Example 47, 7-Methoxy-3-methyl-8-(1-methyl-1H-pyrazol-4-yl)-1-thiazol-2-yl-1,3-dihydro-imidazo[4,5-c]quinolin-2-one], for which the IC50 is below 0.01 µM in assay [1]; below 0.01 µM in assay [1] (10 μM ATP, substrate p53); 0.2 to 1 µM in assay [2]; above 30 µM at mTOR (human); above 30 µM on PI3K p110α/p85α (human); above 30 µM on PI3K p110β/p85α (human). The IC50 on PI3K p110δ/p85α (human) and at PI3K (p120γ) (human) was above 30 µM each time.

Consider `COc1cc2ncc3c(c2cc1-c1cnn(C)c1)n(-c1cnn(C2CCOCC2)c1)c(=O)n3C` [Compound Example 55, 7-Methoxy-3-methyl-8-(1-methyl-1H-pyrazol-4-yl)-1-[1-(tetrahydropyran-4-yl)-1H-pyrazol-4-yl]-1,3-dihydroimidazo[4,5-c]-quinolin-2-one], for which the IC50 was below 0.01 µM in assay [1]; below 0.01 µM in assay [1] (10 μM ATP, substrate p53); 0.2 to 1 µM in assay [2]; above 30 µM against mTOR (human); above 30 µM at PI3K p110α/p85α (human); above 30 µM on PI3K p110β/p85α (human). For the same compound, the IC50 on PI3K p110δ/p85α (human) and on PI3K (p120γ) (human) was above 30 µM throughout.

As for `CCn1cc(-c2cc3c(cc2OC)ncc2c3n(-c3cn(C)nc3C)c(=O)n2C)cn1` [Compound Example 21, 1-(1,3-Dimethyl-1H-pyrazol-4-yl)-8-(1-ethyl-1H-pyrazol-4-yl)-7-methoxy-3-methyl-1,3-dihydroimidazo[4,5-c] quinolin-2-one], the IC50 is below 0.001 µM in assay [1]; below 0.001 µM in assay [1] (10 μM ATP, substrate p53); below 0.2 µM in assay [2]; above 5 µM at mTOR (human); above 20 µM at PI3K p110α/p85α (human); above 30 µM at PI3K p110β/p85α (human). The IC50 on PI3K p110δ/p85α (human) was above 30 µM; on PI3K (p120γ) (human), above 300 µM.

Regarding `COc1cc2ncc3c(c2cc1-c1cnn(C)c1)n(-c1c(C)cncc1F)c(=O)n3C` [Compound Example 18, 1-(3-Fluoro-5-methylpyridin-4-yl)-7-methoxy-3-methyl-8-(1-methyl-1H-pyrazol-4-yl)-1,3-dihydroimidazo[4,5-c] quinolin-2-one], the IC50 in assay [1] was below 0.001 µM; in assay [1] (10 μM ATP, substrate p53), below 0.01 µM; in assay [2], below 0.2 µM; against mTOR (human) it was above 5 µM; on PI3K p110α/p85α (human) it was above 10 µM; at PI3K p110β/p85α (human), above 30 µM. For the same compound, the figures for the IC50 on PI3K p110δ/p85α (human) and on PI3K (p120γ) (human) were above 30 µM and above 5 µM, respectively.

As to `CCn1cc(-c2cc3c(cc2OC)ncc2c3n(-c3ccncc3C)c(=O)n2C)cn1` [Compound Example 34, 8-(1-Ethyl-1H-pyrazol-4-yl)-7-methoxy-3-methyl-1-(3-methylpyridin-4-yl)-1,3-dihydroimidazo[4,5-c] quinolin-2-one], the IC50 in assay [1] is below 0.01 µM; in assay [1] (10 μM ATP, substrate p53), below 0.01 µM; in assay [2], below 0.2 µM; on mTOR (human) it was above 30 µM; on PI3K p110α/p85α (human), above 30 µM; at PI3K p110β/p85α (human), above 30 µM. For the same compound, the IC50 at PI3K p110δ/p85α (human) and at PI3K (p120γ) (human) was above 30 µM each time.
